Results reported in patent US8541588B2, “Sulfonamide derivatives” (Pfizer Limited, priority 2009, dated 2013).

biological target: T1, Nav1.7 (or SCN9A) channel; HEK cells stably transfected with hSCN9A (Homo sapiens, UniProt Q15858); assay: Nav1.7 block, PatchXpress 7000 automated whole-cell voltage clamp, estimated IC50 (EIC50); type: cell-based; conditions: estimated IC50; hSCN9A HEK cells, PatchXpress platform; Examples 283-814
T1 construct: expressed in transfected cells
T1 sequence (Q15858 whole entry): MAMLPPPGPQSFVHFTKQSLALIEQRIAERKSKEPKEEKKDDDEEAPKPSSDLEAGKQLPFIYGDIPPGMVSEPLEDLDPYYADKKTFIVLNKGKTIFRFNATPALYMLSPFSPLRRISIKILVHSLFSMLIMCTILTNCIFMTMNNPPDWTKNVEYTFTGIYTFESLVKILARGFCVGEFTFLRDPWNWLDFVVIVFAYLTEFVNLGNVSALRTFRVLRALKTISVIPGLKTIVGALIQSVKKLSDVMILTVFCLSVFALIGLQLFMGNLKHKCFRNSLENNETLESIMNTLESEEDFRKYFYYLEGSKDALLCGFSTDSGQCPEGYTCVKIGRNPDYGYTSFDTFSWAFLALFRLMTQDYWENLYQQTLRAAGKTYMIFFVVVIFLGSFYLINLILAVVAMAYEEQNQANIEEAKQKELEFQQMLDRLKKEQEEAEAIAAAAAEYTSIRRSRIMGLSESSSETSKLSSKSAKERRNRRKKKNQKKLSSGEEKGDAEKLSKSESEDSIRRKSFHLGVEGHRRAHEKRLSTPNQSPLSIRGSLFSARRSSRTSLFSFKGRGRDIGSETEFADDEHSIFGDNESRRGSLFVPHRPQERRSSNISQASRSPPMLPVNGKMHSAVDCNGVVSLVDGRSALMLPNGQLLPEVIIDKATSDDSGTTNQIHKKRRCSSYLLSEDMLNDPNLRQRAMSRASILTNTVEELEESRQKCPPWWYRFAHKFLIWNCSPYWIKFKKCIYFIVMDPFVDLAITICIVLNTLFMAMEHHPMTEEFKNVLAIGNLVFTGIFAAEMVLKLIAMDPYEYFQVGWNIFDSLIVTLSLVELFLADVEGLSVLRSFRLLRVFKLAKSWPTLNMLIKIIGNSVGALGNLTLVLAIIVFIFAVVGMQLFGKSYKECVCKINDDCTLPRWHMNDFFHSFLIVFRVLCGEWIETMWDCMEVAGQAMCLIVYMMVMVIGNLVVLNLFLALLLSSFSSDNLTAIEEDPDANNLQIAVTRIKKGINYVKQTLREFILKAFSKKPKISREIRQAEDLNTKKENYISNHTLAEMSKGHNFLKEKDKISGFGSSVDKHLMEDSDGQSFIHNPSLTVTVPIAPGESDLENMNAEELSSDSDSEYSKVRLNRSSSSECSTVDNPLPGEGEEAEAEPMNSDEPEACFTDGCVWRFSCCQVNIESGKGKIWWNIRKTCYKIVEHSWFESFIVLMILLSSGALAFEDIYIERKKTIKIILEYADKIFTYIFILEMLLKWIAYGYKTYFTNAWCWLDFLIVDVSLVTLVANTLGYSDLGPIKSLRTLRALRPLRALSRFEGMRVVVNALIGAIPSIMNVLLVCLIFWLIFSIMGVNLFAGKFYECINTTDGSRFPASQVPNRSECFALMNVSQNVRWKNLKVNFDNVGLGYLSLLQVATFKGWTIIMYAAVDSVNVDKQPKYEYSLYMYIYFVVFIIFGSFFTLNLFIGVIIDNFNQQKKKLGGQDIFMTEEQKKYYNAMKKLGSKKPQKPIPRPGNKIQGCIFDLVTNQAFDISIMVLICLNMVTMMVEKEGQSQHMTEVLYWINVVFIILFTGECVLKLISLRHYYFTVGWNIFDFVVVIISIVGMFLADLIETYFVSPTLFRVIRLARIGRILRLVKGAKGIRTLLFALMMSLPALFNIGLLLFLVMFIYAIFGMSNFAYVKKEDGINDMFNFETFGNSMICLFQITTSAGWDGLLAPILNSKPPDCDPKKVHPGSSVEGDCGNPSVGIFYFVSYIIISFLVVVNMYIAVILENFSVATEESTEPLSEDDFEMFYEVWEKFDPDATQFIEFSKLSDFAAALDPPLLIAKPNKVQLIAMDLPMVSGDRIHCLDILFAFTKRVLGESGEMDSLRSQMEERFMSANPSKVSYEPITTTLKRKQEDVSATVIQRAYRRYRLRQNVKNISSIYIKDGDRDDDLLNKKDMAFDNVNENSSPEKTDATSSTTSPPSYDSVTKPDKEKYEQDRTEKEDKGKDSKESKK

Which IC50 does the source give for `O=S(=O)(Nc1cscn1)c1cc(Cl)c(Oc2ccc(F)cc2-c2c[nH]nn2)cc1F` [Example 521, 5-chloro-2-fluoro-4-[4-fluoro-2-(1H-1,2,3-triazol-4-yl)phenoxy]-N-1,3-thiazol-4-ylbenzenesulfonamide] here?
The IC50 was 2900 nM.

How did the IC50 turn out when `Cn1ccc(-c2cc(F)ccc2Oc2cc(F)c(S(=O)(=O)Nc3cscn3)cc2Cl)n1` [Example 522, 5-chloro-2-fluoro-4-[4-fluoro-2-(1-methyl-1H-pyrazol-3-yl)phenoxy]-N-1,3-thiazol-4-ylbenzenesulfonamide] was run?
Its IC50 is 7300 nM.

`Cn1nncc1-c1cc(F)ccc1Oc1cc(F)c(S(=O)(=O)Nc2cscn2)cc1Cl` [Example 523, 5-chloro-2-fluoro-4-[4-fluoro-2-(1-methyl-1H-1,2,3-triazol-5-yl)phenoxy]-N-1,3-thiazol-4-ylbenzenesulfonamide] was tested. Which IC50 did it give?
The IC50 was 2600 nM.

For `Cn1nc(C(F)(F)F)cc1-c1ccc(Oc2cc(F)c(S(=O)(=O)Nc3cscn3)cc2Cl)c(C#N)c1` [Example 524, 5-chloro-4-{2-cyano-4-[1-methyl-3-(trifluoromethyl)-1H-pyrazol-5-yl]phenoxy}-2-fluoro-N-1,3-thiazol-4-ylbenzenesulfonamide], which IC50 is on record?
The IC50 was 580 nM.

How did the IC50 turn out when `Cn1nccc1-c1cc(F)c(F)cc1Oc1ccc(S(=O)(=O)Nc2nccs2)cc1C#N` [Example 526, 3-cyano-4-[4,5-difluoro-2-(1-methyl-1H-pyrazol-5-yl)phenoxy]-N-1,3-thiazol-2-ylbenzenesulfonamide] was run?
The IC50 was 160 nM.

With `Cn1nc(C(F)(F)F)cc1-c1cccc(Oc2ccc(S(=O)(=O)Nc3nccs3)cc2C#N)c1F` [Example 527, 3-cyano-4-{2-fluoro-3-[1-methyl-3-(trifluoromethyl)-1H-pyrazol-5-yl]phenoxy}-N-1,3-thiazol-2-ylbenzenesulfonamide] as the compound, how does the IC50 read?
Its IC50 is 140 nM.

Which IC50 does the source give for `Cn1nccc1-c1cc(F)ccc1Oc1ccc(S(=O)(=O)Nc2ccncn2)cc1F` [Example 528, 3-fluoro-4-[4-fluoro-2-(1-methyl-1H-pyrazol-5-yl)phenoxy]-N-pyrimidin-4-ylbenzenesulfonamide] here?
The IC50 was 740 nM.

`N#Cc1cc(S(=O)(=O)Nc2ncc(F)s2)ccc1Oc1ccc(Cl)c(Cn2ccnc2)c1` [Example 530, 4-[4-chloro-3-(1H-imidazol-1-ylmethyl)phenoxy]-3-cyano-N-(5-fluoro-1,3-thiazol-2-yl)benzenesulfonamide] was tested. Which IC50 did it give?
The IC50 was 230 nM.

Which IC50 does the source give for `COc1cccc(-c2cc(Oc3ccc(S(=O)(=O)Nc4ncc(F)s4)cc3C#N)ccc2Cl)c1` [Example 531, 4-[(6-chloro-3′-methoxybiphenyl-3-yl)oxy]-3-cyano-N-(5-fluoro-1,3-thiazol-2-yl)benzenesulfonamide] here?
Its IC50 is 1100 nM.

`COCc1cccc(-c2cc(Oc3ccc(S(=O)(=O)Nc4ncc(F)s4)cc3C#N)ccc2Cl)c1` [Example 532, 4-{[6-chloro-3′-(methoxymethyl)biphenyl-3-yl]oxy}-3-cyano-N-(5-fluoro-1,3-thiazol-2-yl)benzenesulfonamide] was tested. Which IC50 did it give?
Its IC50 is 2900 nM.

How did the IC50 turn out when `N#Cc1cc(S(=O)(=O)Nc2ncc(F)s2)ccc1Oc1ccc(Cl)c(Cn2ccnn2)c1` [Example 533, 4-[4-chloro-3-(1H-1,2,3-triazol-1-ylmethyl)phenoxy]-3-cyano-N-(5-fluoro-1,3-thiazol-2-yl)benzenesulfonamide] was run?
The IC50 was 780 nM.

With `N#Cc1cc(S(=O)(=O)Nc2ncc(F)s2)ccc1Oc1ccc(Cl)c(Cn2cccn2)c1` [Example 534, 4-[4-chloro-3-(1H-pyrazol-1-ylmethyl)phenoxy]-3-cyano-N-(5-fluoro-1,3-thiazol-2-yl)benzenesulfonamide] as the compound, how does the IC50 read?
Its IC50 is 500 nM.

`Cn1nc(C(F)(F)F)cc1-c1ccc(Oc2ccc(S(=O)(=O)Nc3ncc(F)s3)cc2C#N)c(F)c1` [Example 535, 3-cyano-4-{2-fluoro-4-[1-methyl-3-(trifluoromethyl)-1H-pyrazol-5-yl]phenoxy}-N-(5-fluoro-1,3-thiazol-2-yl)benzenesulfonamide] was tested. Which IC50 did it give?
Its IC50 is 170 nM.

How did the IC50 turn out when `CCn1nc(C(F)(F)F)cc1-c1ccc(Oc2ccc(S(=O)(=O)Nc3ncc(F)s3)cc2C#N)cc1F` [Example 536, 3-cyano-4-{4-[1-ethyl-3-(trifluoromethyl)-1H-pyrazol-5-yl]-3-fluorophenoxy}-N-(5-fluoro-1,3-thiazol-2-yl)benzenesulfonamide] was run?
The IC50 was 220 nM.

`CCn1nc(C(F)(F)F)cc1-c1ccc(Oc2ccc(S(=O)(=O)Nc3ncc(F)s3)cc2C#N)c(F)c1` [Example 537, 3-cyano-4-{4-[1-ethyl-3-(trifluoromethyl)-1H-pyrazol-5-yl]-2-fluorophenoxy}-N-(5-fluoro-1,3-thiazol-2-yl)benzenesulfonamide] was tested. Which IC50 did it give?
The IC50 was 25 nM.

`Cn1nccc1-c1ccc(Oc2ccc(S(=O)(=O)Nc3ncc(F)s3)cc2C#N)c(C#N)c1` [Example 538, 3-cyano-4-[2-cyano-4-(1-methyl-1H-pyrazol-5-yl)phenoxy]-N-(5-fluoro-1,3-thiazol-2-yl)benzenesulfonamide] was tested. Which IC50 did it give?
The IC50 was 3400 nM.

`CCn1nc(-c2ccc(Oc3ccc(S(=O)(=O)Nc4ncc(F)s4)cc3C#N)c(F)c2)cc1C(F)(F)F` [Example 540, 3-cyano-4-{4-[1-ethyl-5-(trifluoromethyl)-1H-pyrazol-3-yl]-2-fluorophenoxy}-N-(5-fluoro-1,3-thiazol-2-yl)benzenesulfonamide] was tested. Which IC50 did it give?
Its IC50 is 4000 nM.

Which IC50 does the source give for `COc1ccc(-c2ccnn2C)c(Oc2ccc(S(=O)(=O)Nc3nccs3)cc2C#N)c1` [Example 541, 3-cyano-4-[5-methoxy-2-(1-methyl-1H-pyrazol-5-yl)phenoxy]-N-1,3-thiazol-2-ylbenzenesulfonamide] here?
The IC50 was 140 nM.

With `Cn1nccc1-c1ccc(F)cc1Oc1ccc(S(=O)(=O)Nc2nccs2)cc1C#N` [Example 542, 3-cyano-4-[5-fluoro-2-(1-methyl-1H-pyrazol-5-yl)phenoxy]-N-1,3-thiazol-2-ylbenzenesulfonamide] as the compound, how does the IC50 read?
Its IC50 is 66 nM.

Which IC50 does the source give for `Cc1ccc(-c2ccnn2C)c(Oc2ccc(S(=O)(=O)Nc3nccs3)cc2C#N)c1` [Example 543, 3-cyano-4-[5-methyl-2-(1-methyl-1H-pyrazol-5-yl)phenoxy]-N-1,3-thiazol-2-ylbenzenesulfonamide] here?
The IC50 was 66 nM.

`Cn1nccc1-c1ccc(Cl)cc1Oc1ccc(S(=O)(=O)Nc2nccs2)cc1C#N` [Example 544, 4-[5-chloro-2-(1-methyl-1H-pyrazol-5-yl)phenoxy]-3-cyano-N-1,3-thiazol-2-ylbenzenesulfonamide] was tested. Which IC50 did it give?
The IC50 was 22 nM.

For `Cn1nccc1-c1cc(C2CC2)ccc1Oc1ccc(S(=O)(=O)Nc2nccs2)cc1C#N` [Example 545, 3-cyano-4-[4-cyclopropyl-2-(1-methyl-1H-pyrazol-5-yl)phenoxy]-N-1,3-thiazol-2-ylbenzenesulfonamide], which IC50 is on record?
The IC50 was 23 nM.

`Cc1[nH]ncc1-c1cc(Cl)ccc1Oc1ccc(S(=O)(=O)Nc2nccs2)cc1C#N` [Example 546, 4-[4-chloro-2-(5-methyl-1H-pyrazol-4-yl)phenoxy]-3-cyano-N-1,3-thiazol-2-ylbenzenesulfonamide] was tested. Which IC50 did it give?
The IC50 was 20 nM.

Which IC50 does the source give for `CCn1nc(C(F)(F)F)cc1-c1cccc(Oc2ccc(S(=O)(=O)Nc3nccs3)cc2C#N)c1` [Example 547, 3-cyano-4-{3-[1-ethyl-3-(trifluoromethyl)-1H-pyrazol-5-yl]phenoxy}-N-1,3-thiazol-2-ylbenzenesulfonamide] here?
The IC50 was 120 nM.

`CCn1nc(C(C)(C)C#N)cc1-c1ccc(Oc2ccc(S(=O)(=O)Nc3nccs3)cc2C#N)cc1` [Example 548, 3-cyano-4-{4-[3-(1-cyano-1-methylethyl)-1-ethyl-1H-pyrazol-5-yl]phenoxy}-N-1,3-thiazol-2-ylbenzenesulfonamide] was tested. Which IC50 did it give?
The IC50 was 410 nM.

For `N#Cc1cc(S(=O)(=O)Nc2nccs2)ccc1Oc1cccc(-c2cc(C(F)(F)F)nn2CCO)c1` [Example 549, 3-cyano-4-{3-[1-(2-hydroxyethyl)-3-(trifluoromethyl)-1H-pyrazol-5-yl]phenoxy}-N-1,3-thiazol-2-ylbenzenesulfonamide], which IC50 is on record?
The IC50 was 160 nM.

How did the IC50 turn out when `CN(C)CCn1nc(C(F)(F)F)cc1-c1cccc(Oc2ccc(S(=O)(=O)Nc3nccs3)cc2C#N)c1` [Example 550, 3-cyano-4-(3-{1-[2-(dimethylamino)ethyl]-3-(trifluoromethyl)-1H-pyrazol-5-yl}phenoxy)-N-1,3-thiazol-2-ylbenzenesulfonamide] was run?
The IC50 was 200 nM.

With `N#Cc1cc(S(=O)(=O)Nc2nccs2)ccc1Oc1ccc(-c2cc(C(F)(F)F)nn2CCCF)cc1F` [Example 551, 3-cyano-4-{2-fluoro-4-[1-(3-fluoropropyl)-3-(trifluoromethyl)-1H-pyrazol-5-yl]phenoxy}-N-1,3-thiazol-2-ylbenzenesulfonamide] as the compound, how does the IC50 read?
Its IC50 is 71 nM.

Which IC50 does the source give for `Nc1cc(-c2cc(OC(F)(F)F)ccc2Oc2cc(F)c(S(=O)(=O)Nc3ncns3)cc2Cl)ccn1` [Example 553, 4-[2-(2-aminopyridin-4-yl)-4-(trifluoromethoxy)phenoxy]-5-chloro-2-fluoro-N-1,2,4-thiadiazol-5-ylbenzenesulfonamide] here?
The IC50 was 1.7 nM.

`Nc1ccnc(-c2cc(Cl)ccc2Oc2cc(F)c(S(=O)(=O)Nc3ncns3)cc2Cl)c1` [Example 554, 4-[2-(4-aminopyridin-2-yl)-4-chlorophenoxy]-5-chloro-2-fluoro-N-1,2,4-thiadiazol-5-ylbenzenesulfonamide] was tested. Which IC50 did it give?
Its IC50 is 120 nM.

For `Nc1cccc(-c2cc(C(F)(F)F)ccc2Oc2cc(F)c(S(=O)(=O)Nc3ncns3)cc2F)n1` [Example 555, 4-[2-(6-aminopyridin-2-yl)-4-(trifluoromethyl)phenoxy]-2,5-difluoro-N-1,2,4-thiadiazol-5-ylbenzenesulfonamide], which IC50 is on record?
The IC50 was 14 nM.

How did the IC50 turn out when `Nc1cc(-c2cc(C(F)(F)F)ccc2Oc2cc(F)c(S(=O)(=O)Nc3ncns3)cc2F)ccn1` [Example 556, 4-[2-(2-aminopyridin-4-yl)-4-(trifluoromethyl)phenoxy]-2,5-difluoro-N-1,2,4-thiadiazol-5-ylbenzenesulfonamide] was run?
Its IC50 is 2.3 nM.

How did the IC50 turn out when `Nc1cc(-c2cc(C(F)(F)F)ccc2Oc2cc(F)c(S(=O)(=O)Nc3ncns3)cc2Cl)ccn1` [Example 557, 4-[2-(2-aminopyridin-4-yl)-4-(trifluoromethyl)phenoxy]-5-chloro-2-fluoro-N-1,2,4-thiadiazol-5-ylbenzenesulfonamide] was run?
Its IC50 is 0.8 nM.

`N#Cc1cc(S(=O)(=O)Nc2nccs2)ccc1Oc1ccc(-c2cc(C(F)(F)F)nn2C2CNC2)cc1` [Example 558, 4-{4-[1-azetidin-3-yl-3-(trifluoromethyl)-1H-pyrazol-5-yl]phenoxy}-3-cyano-N-1,3-thiazol-2-ylbenzenesulfonamide] was tested. Which IC50 did it give?
Its IC50 is 39 nM.
